Measured values from patent US20040033958A1, “N-alkylglycine trimeres capable of blocking the response to chemical substances, heat stimuli or mediators of neuronal receptor inflammation and compositions containing said trimeres” (priority 2000, published 2004).

What was measured:
VR1 nociceptor = VR1 nociceptor (Rattus norvegicus, UniProt O35433); test: Blocking of capsaicin-activated ionic current in X. laevis ovocites expressing the VR1 nociceptor (two-microelectrode voltage clamp); format: cell-based; conditions: activated by capsaicin 20 μM, -80 mV, read-out: concentration that inhibited half the VR1 nociceptor response (IC50)
VR1 nociceptor, sequence (O35433 whole entry): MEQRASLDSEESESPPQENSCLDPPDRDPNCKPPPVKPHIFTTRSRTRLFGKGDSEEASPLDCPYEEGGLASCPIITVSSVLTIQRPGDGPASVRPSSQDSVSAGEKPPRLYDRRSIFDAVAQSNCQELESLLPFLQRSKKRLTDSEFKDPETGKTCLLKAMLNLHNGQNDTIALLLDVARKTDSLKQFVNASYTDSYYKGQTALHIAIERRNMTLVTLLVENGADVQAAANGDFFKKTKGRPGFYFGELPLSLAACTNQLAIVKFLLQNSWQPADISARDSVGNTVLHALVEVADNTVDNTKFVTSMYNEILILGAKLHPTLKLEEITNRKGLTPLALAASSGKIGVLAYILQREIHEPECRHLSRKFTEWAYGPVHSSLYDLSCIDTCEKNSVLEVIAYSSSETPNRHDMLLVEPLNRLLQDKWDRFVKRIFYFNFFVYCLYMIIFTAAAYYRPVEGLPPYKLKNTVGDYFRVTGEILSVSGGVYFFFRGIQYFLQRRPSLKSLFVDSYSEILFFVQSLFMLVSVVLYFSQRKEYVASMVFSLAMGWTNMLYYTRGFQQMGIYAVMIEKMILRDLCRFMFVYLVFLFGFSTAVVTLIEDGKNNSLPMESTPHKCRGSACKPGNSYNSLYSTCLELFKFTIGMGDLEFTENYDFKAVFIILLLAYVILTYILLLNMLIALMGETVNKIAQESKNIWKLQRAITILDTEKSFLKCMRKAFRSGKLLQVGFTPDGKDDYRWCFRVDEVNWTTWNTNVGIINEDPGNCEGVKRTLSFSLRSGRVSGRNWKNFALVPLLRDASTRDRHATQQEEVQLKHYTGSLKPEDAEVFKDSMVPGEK
From the text: This test comprises the contacting of X. laevis ovocites that express the VR1 nociceptor or glutamatergic receptors with an agonist (ligand) for said VR1 nociceptor, for example, capsaicin or L-glutamate, in the presence or absence of the compound to be tested, maintaining the transmembrane voltage constant at −80 mV, and to detect the inhibiting activity of said compound to be tested by measuring the ionic current activated by the agonist in the presence and absence of the compound to be tested. The power and efficiency of the inhibiting activity of the compound to be tested can be determined by obtaining the dose-response curves. For this, the magnitude of the ionic current blockage activated by the X. laevis ovocite agonist that express the receptors in the presence of growing concentrations of the compound to be tested, is examined. The ionic current intensities ratio, in the presence and absence of the compound to be tested, allows to obtain the dose-response curves (19, 20). These graphs meet logarithmic functions to determine the maximum blockage (power) and the antagonist concentration that is produced by half the maximum blockage (IC50 efficiency).
Briefly, the X. laevis ovocites of adult frogs are gathered, manipulated, and injected with cDNA that codes the VR1 nociceptor (5, 19). The ionic currents activated by the capsaicin agonist are recorded with the maintenance of the constant voltage technique with two microelectrodes (two-microelectrode voltage clamp) (19, 20). The ovocites that express the VR1 nociceptor are transferred to the recording chamber and perfunded using an 8-output perfusion system. […] The inhibiting activity is detected by measuring the ionic current activated by the agonist in the presence and absence of the N-alkylglycine trimeres.
The power and efficiency of the inhibitory activity of N-alkylglycine trimeres is determined by obtaining the dose-response curves. […]

[1] = tested on: irritation produced by topical capsaicin in the eye; test: Ocular pain model: scratches after topical capsaicin in the eye of a mouse; format: in vivo; conditions: scratches during 1 minute, second capsaicin application with compound vs first without
Experimental: An investigation was performed on the attenuation of the N-alkylglycine trimeres indicated in Table 1, on the irritation produced by the topical application of capsaicin in the eyes of animals, an ocular pain model (22). The experimental paradigm compares the number of scratches after the topical administration of capsaicin at 0,01% in the eye of a mouse, in the absence and presence of the N-alkylglycine trimeres. After the administration of capsaicin, the number of times the mouse scratches its treated eye during 1 minute is counted. Subsequently, the affected eye is extensively rinsed with saline solution and 15 minutes after application, the compound to be tested is administered. After 5 minutes incubation, a 0,1% capsaicin solution containing the compound to be tested is administered. The number of times the animal scratches its eye during 1 minute is immediately counted. The analgesic capacity is obtained by comparing the number of scratches in the first application of capsaicin (without the compound to be tested) and the second application of the irritant (in the presence of the compound to be tested). A decrease of scratches in the second application of capsaicin is indicative of an analgesic activity of the N-alkylglycine trimere tested.

[2] = target: NMDA receptor (NR1 and NR2A subunities) (Homo sapiens, UniProt Q05586+Q12879); test: Blocking of L-glutamate/glycine-activated ionic current in X. laevis ovocites expressing the NMDA receptor (two-microelectrode voltage clamp); format: cell-based; conditions: activated by L-glutamate/glycine 100 μM/20 μM, -80 mV, read-out: concentration that inhibited half the NMDA receptor response (IC50)
NMDA receptor (NR1 and NR2A subunities), sequence (Q12879 23-1464, other chains not shown): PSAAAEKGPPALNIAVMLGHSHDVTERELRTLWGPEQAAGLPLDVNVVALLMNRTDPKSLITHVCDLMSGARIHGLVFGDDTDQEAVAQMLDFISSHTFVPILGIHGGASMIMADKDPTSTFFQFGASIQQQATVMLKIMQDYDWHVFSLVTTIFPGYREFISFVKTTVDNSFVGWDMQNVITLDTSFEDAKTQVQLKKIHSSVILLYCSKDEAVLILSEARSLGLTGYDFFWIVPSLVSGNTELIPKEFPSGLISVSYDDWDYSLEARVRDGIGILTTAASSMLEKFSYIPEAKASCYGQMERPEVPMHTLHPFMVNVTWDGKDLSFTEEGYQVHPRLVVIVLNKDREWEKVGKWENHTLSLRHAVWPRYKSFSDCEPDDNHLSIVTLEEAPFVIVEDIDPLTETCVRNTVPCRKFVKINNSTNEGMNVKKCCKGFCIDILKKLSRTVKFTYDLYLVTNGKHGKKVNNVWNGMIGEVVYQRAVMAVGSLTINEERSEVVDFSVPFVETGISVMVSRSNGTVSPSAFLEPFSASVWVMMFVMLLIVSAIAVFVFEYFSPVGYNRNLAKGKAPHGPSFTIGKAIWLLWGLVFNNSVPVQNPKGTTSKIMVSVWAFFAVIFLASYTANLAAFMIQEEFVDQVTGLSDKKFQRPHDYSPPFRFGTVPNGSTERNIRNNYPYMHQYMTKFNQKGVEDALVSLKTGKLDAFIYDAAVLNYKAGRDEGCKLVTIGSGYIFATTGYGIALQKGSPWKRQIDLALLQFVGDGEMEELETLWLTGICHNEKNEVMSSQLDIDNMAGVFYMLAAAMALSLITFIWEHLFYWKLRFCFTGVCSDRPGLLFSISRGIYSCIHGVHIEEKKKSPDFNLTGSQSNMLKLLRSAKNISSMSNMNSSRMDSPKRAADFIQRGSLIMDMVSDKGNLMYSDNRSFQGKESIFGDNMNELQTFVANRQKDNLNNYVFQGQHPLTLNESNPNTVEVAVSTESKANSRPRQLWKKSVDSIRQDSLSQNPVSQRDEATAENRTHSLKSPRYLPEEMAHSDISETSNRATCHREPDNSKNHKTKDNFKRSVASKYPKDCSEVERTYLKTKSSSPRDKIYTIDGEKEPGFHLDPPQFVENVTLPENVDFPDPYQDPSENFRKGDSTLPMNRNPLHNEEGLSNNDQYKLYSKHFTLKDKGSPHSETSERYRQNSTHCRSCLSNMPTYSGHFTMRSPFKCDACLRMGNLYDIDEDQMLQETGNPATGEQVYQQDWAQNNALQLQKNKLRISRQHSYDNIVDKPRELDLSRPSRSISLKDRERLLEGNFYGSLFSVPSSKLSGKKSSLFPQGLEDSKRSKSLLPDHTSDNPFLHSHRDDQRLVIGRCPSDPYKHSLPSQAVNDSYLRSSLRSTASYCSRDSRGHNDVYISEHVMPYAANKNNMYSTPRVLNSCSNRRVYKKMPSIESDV
From the text: In order to evaluate the biological activity of the N-alkylglycine trimeres obtained in Example 1.1 on type NMDA glutamatergic receptors, a test was developed that evaluated the efficiency and power of said compounds blocking the ionic current activated by X. laevis ovocite agonist that express the type NMDA receptor, the […].
The heterologeous expression of receptors in X. laevis ovocites may be carried out according to the procedure described by Ferrer-Montiel and Montal (19). Briefly, the X. laevis ovocites of adult frogs are gathered, manipulated and injected with cRNA that codes the NR1 and NR2A subunities of the NMDA receptor (5, 20). The ionic currents activated by L-glutamate agonist in the presence of the glycine coagonist are recorded with the constant voltage maintenance technique with two microelectrodes (two-microelectrode voltage clamp) (19, 20). The ovocites that express the receptor are transferred to the recording chamber and perfunded using an 8-output perfusion system. The agonist and the coagonist, both in the absence and in the presence of the N-alkylglcycine trimeres to be tested, are dissolved in a Ringer buffer (Hepes 10 mM pH 7,4 NaCl 100 mM, Ba Cl2, 2,0 mM, KCl 3,0 mM) supplemented with 100 μM fluphenamic acid (20). This buffered solution is used to minimize the contribution of the chloride endogenous ionic channel activated by calcium to the glutamatergic receptor ionic current (19, 20). The transmembrane voltage is kept constant at −80 mV and the ionic currents are activated by applying pulses of the L-glutamate/glycine solution (100 μM /20 μM) in the presence or absence of growing concentrations of the N-alkylglycine trimeres to be tested. The inhibiting activity is detected by measuring the ionic current activated by the agonist in the presence and absence of the N-alkylglycine trimeres.
The power and efficiency of the N-alkylglycine trimeres inhibiting activity is determined by obtaining the dose-response curves. […]

| SMILES | IC50 (VR1 nociceptor) | attenuation of the ocular irritation produced by capsaicin [1] | IC50 [2] |
| --- | --- | --- | --- |
| CN1CCCC1CCNCC(=O)N(CCc1ccc(Cl)cc1Cl)CC(=O)N(CCc1ccc(Cl)cc1Cl)CC(N)=O (racemic) [compound [4], [N-[(R,S)-2-[2-(N-methyl)pyrrolidinyl]ethyl]glycyl]-[N-(2,4-dichlorophenethyl)glycyl]-N-(2,4-dichlorophenethyl)glycinamide] | ~1000 nM | approximately 40% | – |
| CCN(CC)CCCNCC(=O)N(CCc1ccc(Cl)cc1Cl)CC(=O)N(CCC(C)C)CC(N)=O [compound [7], [N-[3-(N,N-diethylamine)propyl]glycyl]-[N-(2,4-dichlorophenethyl)glycyl]-N-(3-methylbutyl)glycinamide] | ~30000 nM | – | – |
| CCN(CC)CCCNCC(=O)N(CCc1ccc(Cl)cc1Cl)CC(=O)N(CCc1ccc(Cl)cc1Cl)CC(N)=O [compound [8], [N-[3-(N,N-diethylamine)propyl]glycyl]-[N-(2,4-dichlorophenethyl)glycyl]-N-(2,4-dichlorophenethyl)glycinamide] | ~2000 nM | approximately 20% | – |
| CCN(CC)CCCN(CC(=O)N(CCc1ccc(Cl)cc1Cl)CC(N)=O)C(=O)CNCCC(c1ccccc1)c1ccccc1 [compound [9]] | – | – | 1000 nM |
| CCN(CC)CCCN(CC(=O)N(CCc1ccccn1)CC(N)=O)C(=O)CNCCC(c1ccccc1)c1ccccc1 [compound [10]] | – | – | ~2000 nM |
| CCN(CC)CCCN(CC(=O)N(CCn1ccnc1)CC(N)=O)C(=O)CNCCC(c1ccccc1)c1ccccc1 [compound [11]] | – | – | ~10000 nM |
